In patent publication US11234960B2, “Compositions and methods for improving mitochondrial function and treating neurodegenerative diseases and cognitive disorders” (Amazentis SA, priority 2010, dated 2022):

Key:
Assay type in all cases: in vivo
[1] = system: normal mice; test: Treadmill endurance test in normal mice; settings: 55 mg/kg/day in food, 6 weeks of treatment (FIG. 49)
Description: Normal 8-week-old mice were acclimated for 2 weeks prior to the start of the study. Mice were fed with a standard rodent diet (chow diet) or a diet containing urolithin A mixed with the food to reach a dosing of 55 mg/kg/day delivered to the mice. Following 6 weeks of treatment, mice were tested for their muscle performance by means of an endurance test.
An endurance test was performed using a variable speed belt treadmill enclosed in a plexiglass chamber with a stimulus device consisting of a shock grid attached to the rear of the belt (Panlab, Barcelona, Spain). Mice were run at 10 cm/sec and a 0° of incline for 5 min. Speed was then incremented by 2 cm/sec every 5 min, until mice were exhausted. The distance run and the number of shocks obtained over 5 min intervals were recorded. Mice were considered exhausted and removed from the experiment when they received approximately 20 shocks in a period of 1 min. Control untreated and urolithin A-treated mice were tested and compared for their performance.
Improved muscle performance and endurance is reflected by an ability to run at higher speeds on the treadmill. Mice will seek to avoid the shock and will run despite the increasing speed. At a certain point the mice are unable to keep up with the treadmill speed and are shocked. After reaching the threshold levels of shocks, mice are removed from the treadmill. […]

[2] = system: maternally separated mice; test: Dark/light box test in early-life stress (maternal separation) mice; settings: 90 mg/kg/day in food (FIG. 39)
Description: (§1) At postnatal day 1, pups were culled to have 6 pups per mother. From postnatal day 1 to 14, unpredictable maternal separation (MS) of a period of 3 hours daily was carried out. Maternal separation was performed at random times (from 8 am to 2 pm) to avoid the habituation of the mother to the procedure. The protocol consisted of removing pups from their mother to another cage at room temperature for a 3 hour period, after which the pups were returned to their original nest. These groups are denoted as early-life stress in the figures. A control group of dam/pups was left undisturbed and is denoted in the figures as normal.
(§2) One week after maternal separation mice were separated into two groups. One control group received the standard mouse chow diet (Untreated), while the other group received the ellagitannin punicalagin admixed into the food and designed to deliver a dose of 90 mg/kg/day to the mice. Treatment with the diet began 1 week after the termination of the maternal separation treatment.
The effects of early-life stress on depression, anxiety and cognition were examined utilizing the following behavioral assays which were carried out 166 days after the completion of the maternal separation protocol. Normally raised mice were compared versus maternally separated mice (early-life stress) and maternally separated mice treated with punicalagin. […]

[3] = system: normal mice; test: Rotarod assay in normal mice; settings: 90 mg/kg/day in diet for 3 months, four trials (FIG. 48)
Description: Beginning at 3 months of age, mice were fed either a standard control diet such as AIN-93G or a diet containing punicalagin to deliver a dose of 90 mg/kg/day for a period of 3 months.
To examine the effect of pomegranate derived compounds on muscle performance and motor skills, mice were tested on the rotarod behavioral assay. The rotarod apparatus consists of a rod with a diameter of 2 cm with 5 compartments, 5 cm wide. A mouse is placed on a rotating rod which is started at an initial speed of 5 rpm. The rod speed is gradually accelerated at a rate of 8 rpm/min. The latency to fall was measured with a cutoff time of 300 seconds. Mice were tested for four trials. The latency to fall is a measure of the muscle performance and motor skills of the mice, with a better performance reflected by a longer latency to fall. Both control untreated and punicalagin-treated mice were tested. […] Punicaligin-treated mice were able to remain on the rotarod for a longer time and at higher speeds compared to untreated mice during sequential trial periods (FIG. 48).

[4] = system: maternally separated mice; test: Contextual fear conditioning in early-life stress mice; settings: early-life stressed mice
Description: as §1
One week after maternal separation mice were separated into two groups. […]
Contextual fear conditioning was used to determine the effects of the ellagitannin punicalagin on the susceptibility of adult animals, subjected to early life stress, to anxiety. […] Animal behavior was monitored every 2 seconds throughout the duration of the experiment. The period that mice spent immobile in the chamber was considered as “freezing” and was scored throughout these periods. The time the mice spent immobile after the first shock was recorded for a 60 second period and expressed as a percentage. […]

[5] = system: maternally separated mice; test: Rotarod motor learning in early-life stress mice; settings: early-life stressed mice, 90 mg/kg/day (FIG. 44)
Description: as §1
as §2, with “treatment. […]” for “treatment.”
To measure the effects of pomegranate-derived compounds on the negative cognitive impacts of maternal separation, effects on motor learning were assayed using the rotarod behavioral assay. […] The latency to fall was measured with a cutoff time of 300 sec. […]

Row | SMILES | muscle performance and endurance, treadmill speed [1] | time spent in lit area (risk-taking behavior) [2] | muscle performance and motor skills, latency to fall from rotarod [3] | freezing time after the first foot shock (anxiety level) ([4]; 90 mg/kg/day in food, 60 second period (FIG. 42)) | extinction of contextual recall (freezing as percent of day 1) ([4]; 90 mg/kg/day, 12 days, reduced freezing between days 8 and 12 (FIG. 43)) | motor learning, latency to fall from rotarod [5]
1 | O=c1oc2cc(O)ccc2c2ccc(O)cc12 [urolithin A, 3,8-Dihydroxydibenzo-α-pyrone] | ran at higher speeds than untreated control mice |  |  |  |  | 
2 | O=C1O[C@H]2[C@@H]3OC(=O)c4cc(O)c(O)c(O)c4-c4c(O)c(O)c5oc(=O)c6c(c(O)c(O)c7oc(=O)c4c5c76)-c4c(cc(O)c(O)c4O)C(=O)OC[C@H]3OC(O)[C@@H]2OC(=O)c2cc(O)c(O)c(O)c2-c2c1cc(O)c(O)c2O (mixture of isomers) [punicalagin, 2,3 hexahydroxydiphenoyl-4,6-gallagylglucose] |  | reversed and normalized the excessive risk-taking behavior | significantly improve muscle performance and motor skills | decreased and normalized these elevated anxiety levels | faster extinction than untreated early-life stressed mice | restored motor learning skills
